According to US9877961B2, “Anticoagulant reversal agents” (PEROSPHERE INC., priority 2011, dated 2018):
Entries after “also recorded” stand apart in the source; their conditions may differ.

Key:
[1] = system: unfractionated heparin anticoagulation; assay: DAP reversal of unfractionated heparin anticoagulation in vivo, aPTT; parameters: species or system rat
From the text: The activated partial thromboplastin time (aPTT) assay is an assay that measures how long it takes for the blood to clot. Blood samples are collected for direct measurement or in tubes with oxalate and citrate to arrest coagulation by calcium until the assay can be performed. In the assay, a phospholipid, an activator (silica, celite, kaolin, ellagic acid, etc.), and calcium are mixed into the plasma to induce coagulation. The assay measures the time until a thrombus (clot) forms.
A male albino rat, weighing 515 g, was administered 10 mg/kg of unfractionated heparin (5 mg UFH) by subcutaneous injection.
200 mg/kg of DAP (100 mg DAP) was administered as two intravenous bolus injections after UFH administration. Subsequently, the rat was administered a dose of 400 mg/kg of DAP (200 mg of DAP). aPTT was measured throughout the course of the entire treatment.

[2] = DLS association of DAP with argatroban; format: binding; conditions: concentrations up to 1:1000
[3] = system: edoxaban (LIXIANA®) anticoagulation; assay: Rat tail transection bleeding assay, edoxaban; format: in vivo
Description: (§1) Rat tail bleeding assay or rat tail transection assay is an assay that measures blood loss, e.g., blood loss after drug administration. In one embodiment, where the effect of the compound of the invention (e.g., DAP) is being tested, at the Tmax of the anticoagulant, DAP is administered intravenously. After 20 minutes, rat tails are transected approximately 1 mm from the tip, placed in room temperature saline, and blood is collected for 30 minutes and weighed.
(§2) Three rats each were administered 2 mg of rivaroxaban. One rat received a sham reversal containing no DAP, the second received 2.5 mg of DAP, and the third received 12.5 mg DAP. A fourth fat received sham anticoagulant and reversal doses (“sham”). 20 minutes after the reversal dose, tails were transected 1 mm from the tip, placed in room temperature saline, and blood loss was collected for 30 minutes and then weighed.
Same procedures were used with 1.25 mg apixaban (ELIQUIS®) alone or in combination with 5 or 12.5 mg DAP; with 15.5 mg dabigatran etexilate (PRADAXA®) alone or in combination with 5 or 12.5 mg DAP; […]

Water solubility of DAP = format: physicochemical
Description: In one embodiment, wherein the pharmaceutical composition comprises the DAP compound of formula V (or its stereoisomer of formula VII) and the composition is adapted for parenteral administration in an injection, the compound is dissolved in water with appropriate tonicity and molality modifiers (such as phosphate buffered saline). DAP is water-soluble at greater than 100 mg/ml. In the one embodiment, DAP is adapted as a sterile solution for IV administration. In one aspect, the molality of the pharmaceutical composition in which DAP is adapted for IV administration is adjusted to 290 mOsm/L with sodium chloride, and the pH is adjusted to 7.4 with sodium hydroxide. Preferably the pharmaceutical composition is administered as an intravenous bolus by slow push.

[4] = system: dabigatran etexilate (PRADAXA®) anticoagulation; assay: Rat tail transection bleeding assay, dabigatran etexilate; format: in vivo
Description: as §1, §2
Same procedures were used with 1.25 mg apixaban (ELIQUIS®) alone or in combination with 5 or 12.5 mg DAP; […]; and with 5 mg edoxaban (LIXIANA®) alone or in combination with 12.5 mg DAP.

[5] = system: rivaroxaban-induced anticoagulation; assay: DAP reversal of rivaroxaban in freshly drawn human blood ex vivo, aPTT; format: biochemical; conditions: 0.25 μg/ml rivaroxaban, 50 μg/ml DAP
Description: Human blood was drawn from a volunteer. Rivaroxaban at 0.25 μg/ml was added alone or in combination with 50 μg/ml DAP. Controls contained 50 μg/ml DAP or saline. aPTT was measured within 2 minutes of blood collection.

[6] = Dynamic light scattering (DLS) association of DAP with unfractionated heparin; format: binding; conditions: DAP:heparin 100:1 mass ratio in water
Description: (§3) Dynamic light scattering (DLS) was used to assess association of 1 mg/ml unfractionated heparin and 1 mg/ml bemiparin (LMWH; HIBOR®), either alone or in combination with […] DAP in water (mass ratios of 100:1 of DAP to heparin or LMWH).

[7] = DLS association of DAP with LMWH (bemiparin); format: binding
Description: as §3
Rivaroxaban (XARELTO®) alone, DAP alone, and DAP:rivaroxaban combinations at mass ratios of 1:1 and 10:1 were added into an aqueous solution and analyzed by dynamic light scattering (DLS) to assess association of the DAP and rivaroxaban. A similar experiment was conducted on apixaban (ELIQUIS®) alone, DAP alone, and DAP:apixaban combinations at mass ratios of 1:1, 10:1 and 100:1. Fondaparinux (ARIXTRA®) alone, DAP alone, and fondaparinux:DAP combinations at mass ratios of 1:1, 10:1 and 100:1 were similarly tested. LMWH (bemiparin; HIBOR®), alone, DAP alone, and LMWH:DAP combinations at mass ratios of 1:1, 10:1, and 100:1 were also tested. The concentration of LMWH tested was 0.1 mg/ml. Therefore, at 1:1, 0.1 mg/ml DAP was tested, at 10:1, 1 mg/ml was tested, and at 100:1, 10 mg/ml DAP was tested.

[8] = system: apixaban (ELIQUIS®) anticoagulation; assay: Rat tail transection bleeding assay, apixaban; format: in vivo; conditions: for blood loss (blood collected over 30 minutes): p<0.01 vs apixaban only
Description: as §1, §2
Same procedures were used with 1.25 mg apixaban (ELIQUIS®) alone or in combination with 5 or 12.5 mg DAP; with 15.5 mg dabigatran etexilate (PRADAXA®) alone or in combination with 5 or 12.5 mg DAP; and with 5 mg edoxaban (LIXIANA®) alone or in combination with 12.5 mg DAP.

CYP enzymes = assay: CYP enzyme inhibition / substrate; format: in vitro ADME; conditions: data not shown
human ERG = human ERG (Homo sapiens, UniProt Q12809); assay: Human ERG binding; conditions: data not shown
[9] = Oral bioavailability of DAP in rats; format: in vivo, rat
aPTT = assay: Intravenous DAP alone, aPTT in the absence of anticoagulants; format: in vivo, rat; conditions: 0, 2, 10, 25, 50 or 100 mg DAP i.v., no anticoagulant
Description: 0, 2, 10, 25, 50 or 100 mg DAP were administered intravenously to male, weight matched CD rats and aPTT was measured.

[10] = rat tail transection, 30 minutes

Chain of human ERG (Q12809 whole entry): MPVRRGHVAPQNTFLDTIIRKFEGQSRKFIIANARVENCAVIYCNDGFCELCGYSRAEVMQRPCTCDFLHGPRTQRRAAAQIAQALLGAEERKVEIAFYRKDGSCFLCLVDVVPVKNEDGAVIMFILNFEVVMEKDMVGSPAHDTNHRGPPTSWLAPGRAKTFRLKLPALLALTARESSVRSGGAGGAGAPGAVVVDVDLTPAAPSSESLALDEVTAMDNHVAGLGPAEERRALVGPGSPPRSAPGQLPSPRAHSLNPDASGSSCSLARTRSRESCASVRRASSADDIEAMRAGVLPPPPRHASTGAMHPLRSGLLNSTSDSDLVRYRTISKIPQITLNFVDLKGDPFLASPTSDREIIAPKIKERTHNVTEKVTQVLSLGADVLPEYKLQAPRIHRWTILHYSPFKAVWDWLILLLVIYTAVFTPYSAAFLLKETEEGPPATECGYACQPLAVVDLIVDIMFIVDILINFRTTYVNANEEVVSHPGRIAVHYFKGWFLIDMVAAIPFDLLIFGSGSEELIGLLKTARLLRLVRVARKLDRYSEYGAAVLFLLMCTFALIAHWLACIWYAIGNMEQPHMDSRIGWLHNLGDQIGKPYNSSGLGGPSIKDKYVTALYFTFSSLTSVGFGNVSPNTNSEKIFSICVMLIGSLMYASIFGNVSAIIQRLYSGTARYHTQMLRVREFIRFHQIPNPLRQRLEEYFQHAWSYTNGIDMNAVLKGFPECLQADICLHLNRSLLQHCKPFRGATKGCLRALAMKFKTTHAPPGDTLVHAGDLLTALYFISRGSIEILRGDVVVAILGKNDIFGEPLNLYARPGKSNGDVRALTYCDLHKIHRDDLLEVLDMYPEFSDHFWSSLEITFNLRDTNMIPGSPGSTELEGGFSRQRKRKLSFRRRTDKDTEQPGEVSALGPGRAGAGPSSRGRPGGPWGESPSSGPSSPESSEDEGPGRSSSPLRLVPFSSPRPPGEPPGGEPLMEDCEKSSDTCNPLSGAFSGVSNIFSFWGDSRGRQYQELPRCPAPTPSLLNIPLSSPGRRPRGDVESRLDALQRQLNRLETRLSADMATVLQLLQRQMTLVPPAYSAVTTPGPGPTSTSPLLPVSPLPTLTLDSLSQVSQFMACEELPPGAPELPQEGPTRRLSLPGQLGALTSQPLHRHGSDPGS

SMILES: N=C(N)NCCC[C@H](N)C(=O)NCCCN1CCN(CCCNC(=O)[C@@H](N)CCCNC(=N)N)CC1 (stereo in doubt) [DAP, 2-Amino-5-guanidino-pentanoic acid (3-{4-[3-(2-amino-5-guanidino-pentanoylamino)-propyl]-piperazin-1-yl}-propyl)-amide]
- aPTT after DAP ([1]; 200 mg DAP i.v., 10 minutes): 33 s
- aPTT after DAP ([1]; first 100 mg DAP i.v., 20 minutes): 48 s
- reversal of unfractionated heparin in vivo ([1]; rat, in vivo): reversed
- aPTT after DAP ([1]; second 100 mg DAP i.v., 15 minutes): 47 s
- aPTT risen after first DAP dose ([1]; within 1 hour after first 100 mg DAP): 120 s
- aPTT risen after second DAP dose ([1]; within 1 hour after second 100 mg DAP): 96 s
- binding by DLS [2]: did not bind
- blood loss (blood collected over 30 minutes) ([3]; 1.25 mg edoxaban and 12.5 mg DAP, p<0.05 vs edoxaban only): reduced blood loss to sham dose levels
- reversal of edoxaban, blood loss vs anticoagulant only [3, 10]: reversed; also recorded: statistically significant reduction in blood loss
- solubility (Water solubility of DAP): > 100 mg/mL
- blood loss (blood collected over 30 minutes) ([4]; 15 mg dabigatran etexilate and 12.5 mg DAP, p<0.01 vs dabigatran etexilate only): reduced blood loss to sham dose levels
- reversal of dabigatran, blood loss vs anticoagulant only [4, 10]: statistically significant reduction in blood loss
- effect on rivaroxaban-induced anticoagulation, aPTT [5]: reversal of rivaroxaban-induced anticoagulation
- physical association / binding by DLS [6]: physically associated; also recorded: directly bound
- physical association / binding by DLS [7]: physically associated; also recorded: directly bound
- blood loss (blood collected over 30 minutes) ([8]; 1.25 mg apixaban and 5 mg DAP): reduced blood loss to sham dose levels
- blood loss (blood collected over 30 minutes) ([8]; 1.25 mg apixaban and 12.5 mg DAP): reduced blood loss to sham dose levels
- reversal of apixaban, blood loss vs anticoagulant only [8, 10]: reversed; also recorded: statistically significant reduction in blood loss
- inhibition / substrate of CYP enzymes (CYP enzymes): did not inhibit or serve as a substrate
- human ERG binding (human ERG): no human ERG binding
- oral bioavailability [9]: orally bioavailable
- influence of DAP on aPTT (aPTT): did not influence aPTT
